Legend:
[1] = test system: peripheral blood lymphocyte (PBL) counts; experiment: Phase 1 single dose study: peripheral blood lymphocyte counts; type: in vivo, human
Experimental: Compound 1 was administered as the L-arginine salt.

male Sprague-Dawley rats = details: see WO2010/011316, Example 9; cited from earlier work
subjects = experiment: Phase 1 single dose study: safety and tolerability
Experimental: A phase 1 study with Compound 1 was conducted with single dosing at 0.1 mg, 0.35 mg, 1 mg, 3 mg, and 5 mg. Compound 1 was administered as the L-arginine salt.

SMILES: O=C(O)C[C@H]1CCc2c1[nH]c1ccc(OCc3ccc(C4CCCC4)c(C(F)(F)F)c3)cc21 [Compound 1, (R)-2-(7-(4-cyclopentyl-3-(trifluoromethyl)benzyloxy)-1,2,3,4-tetrahydrocyclopenta[b]indol-3-yl)acetic acid]
- PBL counts reduced ([1]; single dose 3 mg): ~40%
- PBL counts reduced ([1]; single dose 5 mg): ~55%
- absolute number of peripheral blood B cells, T cells, NK cells, and all T cell subsets except TEM cells ([1]; single dose 3 and 5 mg): dose responsive decline
- persistence of PBL nadir ([1]; single dosing): 24 h
- time after dosing by which total PBL counts were reduced ([1]; single dosing): 2 to 4 h
- time of nadir of total PBL counts ([1]; single dosing): ≤ 8 h
- recovery of PBL counts to baseline ([1]; single dosing, after nadir period): 4 days
- bradycardia (male Sprague-Dawley rats): no or substantially no bradycardia
- other safety issues (vital signs, ECGs, pulmonary function tests, ophthalmoscopy, clinical laboratory tests) (subjects; in vivo): no other clinically significant safety issues
- maximum tolerated dose (subjects; single dosing): 3 mg
- deaths or serious adverse events (subjects; single dosing 0.1-5 mg): no deaths or serious adverse events
